These compounds were tested on lipoxygenase (assay: lipoxygenase inhibition: release of leucotriene B4 (LTB4) from polymorphonuclear rat leucocytes (PMNL) after Ca ionophore, reverse phase HPLC). Details: LTB4 release from polymorphonuclear rats leucocytes (PMNL), read-out: LO inhibition IC50.
Format: cell-based
Description: The pharmacological activity data of the substances according to the invention are determined by the following method: As a measure of the lipoxygenase inhibition, the release of leucotriene B4 (LTB4) from polymorphonuclear rats leucocytes (PMNL) was determined after addition of substances and Ca ionophore by means of reverse phase HPLC according to Borgeat, P. et al., Proc. Nat. Acad. Sci., 76, 2148-2152 (1979). The in vivo activity of the compounds was detected using the mouse ear inflammation model according to Young, J. M. et al., J. of Investigative Dermatology, 82, 367-371 (1984).
`CS(=O)(=O)NC(=O)C(c1ccc(OCc2ccc3ccccc3n2)cc1)C1CCCC1` (stereo not drawn) [Example 1] gave an IC50 of 27 nM. `CN(C(=O)C(c1ccc(OCc2ccc3ccccc3n2)cc1)C1CCCC1)S(=O)(=O)C(F)(F)F` (stereo not drawn) [Example 6, N-Methyl-N-{1-[4-(quinolin-2-yl-methoxy)phenyl]-1-cyclopentyl-acetyl}-trifluoromethanesulphonamide] showed an IC50 of 33 nM. Compound `N#CNC(=O)C(c1ccc(OCc2ccc3ccccc3n2)cc1)C1CCCC1` (stereo not drawn) [Example 7, N-{1-[4-(Quinolin-2-yl-methoxy)phenyl]-1-cyclopentyl}-acetyl-cyanamide] has an IC50 of 24 nM.

From patent US5091392A, “Substituted (quinolin-2-yl-methoxy)phenyl-acyl-sulphon-amides and -cyanamides, processes for their preparation and their use in medicaments” (Bayer Aktiengesellschaft, priority 1989, dated 1992)
